From US12539292B2, “BRM targeting compounds and associated methods of use” (Arvinas Operations, Inc., priority 2018, dated 2026) come the findings set out here.

Where two headings read alike, the source gives them in different places. Some results are limits rather than exact numbers.

For orientation: Dmax means the greatest extent of degradation seen. A word on the DC50: it is the concentration at which degradation of the target reaches its halfway point.

The target in the test is T1, BRM (Homo sapiens, UniProt P51531).
T1 construct: In-Cell Western Screen of BRM Degradation in SW1573 Cells; endogenous in cells; host or cells: SW1573
T1 sequence (P51531 whole entry): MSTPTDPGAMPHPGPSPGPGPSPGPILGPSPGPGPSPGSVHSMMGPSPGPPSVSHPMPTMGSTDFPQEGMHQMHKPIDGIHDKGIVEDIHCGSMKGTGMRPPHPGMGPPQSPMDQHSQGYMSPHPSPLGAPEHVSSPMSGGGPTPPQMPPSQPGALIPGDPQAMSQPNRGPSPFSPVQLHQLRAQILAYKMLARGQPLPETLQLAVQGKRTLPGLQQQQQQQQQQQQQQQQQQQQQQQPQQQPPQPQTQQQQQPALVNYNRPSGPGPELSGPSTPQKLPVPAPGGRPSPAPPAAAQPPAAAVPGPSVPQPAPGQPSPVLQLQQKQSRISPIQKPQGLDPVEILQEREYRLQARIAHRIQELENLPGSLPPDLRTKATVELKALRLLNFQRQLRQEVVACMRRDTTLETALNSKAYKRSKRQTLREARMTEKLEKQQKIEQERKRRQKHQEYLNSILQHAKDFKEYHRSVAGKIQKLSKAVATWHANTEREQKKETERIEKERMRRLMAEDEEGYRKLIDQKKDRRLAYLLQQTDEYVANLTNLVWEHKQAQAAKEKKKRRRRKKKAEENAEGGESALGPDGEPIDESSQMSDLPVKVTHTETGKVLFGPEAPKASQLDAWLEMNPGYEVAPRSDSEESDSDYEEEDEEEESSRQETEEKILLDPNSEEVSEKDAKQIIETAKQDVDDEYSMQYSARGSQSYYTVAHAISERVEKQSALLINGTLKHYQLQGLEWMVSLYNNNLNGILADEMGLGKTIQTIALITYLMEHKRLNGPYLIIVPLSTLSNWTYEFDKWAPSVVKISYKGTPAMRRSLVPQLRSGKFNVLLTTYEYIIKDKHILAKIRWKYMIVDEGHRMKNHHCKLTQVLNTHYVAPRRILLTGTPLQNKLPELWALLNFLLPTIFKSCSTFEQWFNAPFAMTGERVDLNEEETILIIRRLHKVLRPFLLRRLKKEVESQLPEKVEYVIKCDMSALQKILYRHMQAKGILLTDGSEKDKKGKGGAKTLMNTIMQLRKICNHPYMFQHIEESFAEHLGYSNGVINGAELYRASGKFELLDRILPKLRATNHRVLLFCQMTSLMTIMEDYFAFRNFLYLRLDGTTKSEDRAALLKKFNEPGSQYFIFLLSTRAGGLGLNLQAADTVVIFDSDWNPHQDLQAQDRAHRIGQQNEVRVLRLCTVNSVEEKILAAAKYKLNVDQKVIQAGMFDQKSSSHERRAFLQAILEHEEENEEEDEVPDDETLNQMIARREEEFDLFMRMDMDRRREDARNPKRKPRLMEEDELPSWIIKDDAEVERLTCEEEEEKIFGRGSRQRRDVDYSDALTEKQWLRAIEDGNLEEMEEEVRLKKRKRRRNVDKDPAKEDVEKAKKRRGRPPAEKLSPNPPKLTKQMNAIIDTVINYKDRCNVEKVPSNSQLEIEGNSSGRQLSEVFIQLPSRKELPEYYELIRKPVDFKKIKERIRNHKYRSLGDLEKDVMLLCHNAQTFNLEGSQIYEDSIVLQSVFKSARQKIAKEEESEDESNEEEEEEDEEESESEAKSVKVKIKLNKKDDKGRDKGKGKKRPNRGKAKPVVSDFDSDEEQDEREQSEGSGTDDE
The test can be described thus: In-cell Western screen of BRM degradation in SW1573 cells (Dmax and DC50). The format is cell-based. The method in brief:
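Overnight compound treatment (18-20 h, final DMSO 0.1%) of SW1573 cells in DMEM with 10% FBS precedes fixation and in-cell Western staining with 800/680 nm dye-labelled secondaries. Plate images give DC50 and maximal degradation.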

Where [1] appears, read: SW1573, % degraded, when tested at the top concentration of between 0.3 and 10 μM, read-out: BRM Dmax (%).
Where [2] appears, read: target protein degradation, read-out: BRM DC50.
Setting [3] is: BRM degradation, SW1573 cells, read-out: DC50.
The mark [4] stands for this setting: BRM degradation, SW1573 cells, when tested at the top concentration of between 0.3 and 10 μM, read-out: Dmax (%) (% degraded).
Where [5] appears, read: BRM degradation, SW1573 cells, Table 2D, read-out: **Dmax (%) (% degraded).
The mark [6] stands for this setting: BRM degradation, SW1573 cells, Table 2D, read-out: *DC50.

For the compound `Cc1ncsc1-c1ccc([C@H](C)NC(=O)[C@@H]2C[C@@H](O)CN2C(=O)[C@H](c2cc(N3CCN(CC4CCN(C[C@H]5C[C@H](Oc6cc(N7C8CCC7CN(c7cc(-c9ccccc9O)nnc7N)C8)ccn6)C5)CC4)CC3)no2)C(C)C)cc1` [compound 457, (2S,4R)-1-((2S)-2-(3-(4-((1-(((1r,3r)-3-((4-(3-(3-amino-6-(2-hydroxyphenyl)pyridazin-4-yl)-3,8-diazabicyclo[3.2.1]octan-8-yl)pyridin-2-yl)oxy)cyclobutyl)methyl)piperidin-4-yl)methyl)piperazin-1-yl)isoxazol-5-yl)-3-methylbutanoyl)-4-hydroxy-N-((S)-1-(4-(4-methylthiazol-5-yl)phenyl)ethyl)pyrrolidine-2-carboxamide], the maximal degradation (Dmax) under setting [1] is > 75%. Further, the DC50 under setting [2] is < 2.5 nM.

`Cc1ncsc1-c1ccc([C@H](C)NC(=O)[C@@H]2C[C@@H](O)CN2C(=O)[C@@H](c2cc(OC/C=C/c3ccc(O[C@H]4C[C@H](Oc5cc(N6C7CCC6CN(c6cc(-c8ccccc8O)nnc6N)C7)ccn5)C4)cn3)no2)C(C)C)cc1` [compound 86, (2S,4R)-1-((2R)-2-(3-(((E)-3-(5-((1r,3R)-3-((4-(3-(3-amino-6-(2-hydroxyphenyl)pyridazin-4-yl)-3,8-diazabicyclo[3.2.1]octan-8-yl)pyridin-2-yl)oxy)cyclobutoxy)pyridin-2-yl)allyl)oxy)isoxazol-5-yl)-3-methylbutanoyl)-4-hydroxy-N-((S)-1-(4-(4-methylthiazol-5-yl)phenyl)ethyl)pyrrolidine-2-carboxamide]: under setting [3], the 50% degradation concentration (DC50) was < 2.5 nM. Moreover, the Dmax under setting [4] is > 75%.

`Cc1ncsc1-c1ccc([C@H](C)NC(=O)[C@@H]2C[C@@H](O)CN2C(=O)[C@@H](c2cc(N3CCN(CCOc4cc(N5C6CCC5CN(c5cc(-c7ccccc7O)nnc5N)C6)ccn4)CC3)no2)C(C)C)cc1` [compound 592, (2S,4R)-1-((2R)-2-(3-(4-(2-((4-(3-(3-amino-6-(2-hydroxyphenyl)pyridazin-4-yl)-3,8-diazabicyclo[3.2.1]octan-8-yl)pyridin-2-yl)oxy)ethyl)piperazin-1-yl)isoxazol-5-yl)-3-methylbutanoyl)-4-hydroxy-N-((S)-1-(4-(4-methylthiazol-5-yl)phenyl)ethyl) pyrrolidine-2-carboxamide]: the Dmax under setting [5] was > 75%. Moreover, under setting [6], the DC50 was < 2.5 nM.

As for `Cc1ncsc1-c1ccc([C@H](C)NC(=O)[C@@H]2C[C@@H](O)CN2C(=O)[C@@H](c2cc(OCCC3CCN(C(=O)[C@H]4C[C@@H](CN5CCC([C@H](C)n6cc(-c7cc(-c8ccccc8O)nnc7N)cn6)CC5)C4)CC3)no2)C(C)C)cc1` [compound 450, (2S,4R)-1-((R)-2-(3-(2-(1-((1R,3S)-3-((4-((S)-1-(4-(3-amino-6-(2-hydroxyphenyl)pyridazin-4-yl)-1H-pyrazol-1-yl)ethyl)piperidin-1-yl)methyl)cyclobutane-1-carbonyl)piperidin-4-yl)ethoxy)isoxazol-5-yl)-3-methylbutanoyl)-4-hydroxy-N-((S)-1-(4-(4-methylthiazol-5-yl)phenyl)ethyl)pyrrolidine-2-carboxamide], under setting [1], the Dmax was > 75%. In addition, the half-maximal degradation concentration (DC50) under setting [2] is 10 to 30 nM.

On to `Cc1ncsc1-c1ccc([C@H](C)NC(=O)[C@@H]2C[C@@H](O)CN2C(=O)[C@H](c2cc(OCCCCN3CCN(CCCCOc4cc(N5C6CCC5CN(c5cc(-c7ccccc7O)nnc5N)C6)ccn4)CC3)no2)C(C)C)cc1` [compound 389, (2S,4R)-1-((2S)-2-(3-(4-(4-(4-((4-(3-(3-amino-6-(2-hydroxyphenyl)pyridazin-4-yl)-3,8-diazabicyclo[3.2.1]octan-8-yl)pyridin-2-yl)oxy)butyl)piperazin-1-yl)butoxy)isoxazol-5-yl)-3-methylbutanoyl)-4-hydroxy-N-((S)-1-(4-(4-methylthiazol-5-yl)phenyl)ethyl)pyrrolidine-2-carboxamide], for which the maximal degradation (Dmax) under setting [1] is > 75%. Also, the half-maximal degradation concentration (DC50) under setting [2] was 10 to 30 nM.

In the case of `Cc1ncsc1-c1ccc([C@H](C)NC(=O)[C@@H]2C[C@@H](O)CN2C(=O)[C@H](c2cc(N3CCC(C(C)N4CCC(O[C@H]5C[C@H](Oc6cc(N7C8CCC7CN(c7cc(-c9ccccc9O)nnc7N)C8)ccn6)C5)CC4)CC3)no2)C(C)C)cc1` (stereo partly drawn) [compound 643, (2S,4R)-1-((2S)-2-(3-(4-(1-(4-((1r,3r)-3-((4-(3-(3-amino-6-(2-hydroxyphenyl)pyridazin-4-yl)-3,8-diazabicyclo[3.2.1]octan-8-yl)pyridin-2-yl)oxy)cyclobutoxy)piperidin-1-yl)ethyl)piperidin-1-yl)isoxazol-5-yl)-3-methylbutanoyl)-4-hydroxy-N-((S)-1-(4-(4-methylthiazol-5-yl)phenyl)ethyl)pyrrolidine-2-carboxamide], the DC50 under setting [3] is < 2.5 nM. Also, the Dmax (BRM degradation, SW1573 cells, read-out: Dmax (% degraded)) is > 75%.

Take `CC(C)[C@H](C(=O)N1C[C@H](O)C[C@H]1C(=O)N[C@@H](C)c1ccc(-n2ccnc2N)cc1)c1cc(N2CCC(CN3CCC(O[C@H]4C[C@H](Oc5cc(N6C7CCC6CN(c6cc(-c8ccccc8O)nnc6N)C7)ccn5)C4)CC3)CC2)no1` [compound 620, (2S,4R)-N-((S)-1-(4-(2-amino-1H-imidazol-1-yl)phenyl)ethyl)-1-((2S)-2-(3-(4-((4-((1r,3r)-3-((4-(3-(3-amino-6-(2-hydroxyphenyl)pyridazin-4-yl)-3,8-diazabicyclo[3.2.1]octan-8-yl)pyridin-2-yl)oxy)cyclobutoxy)piperidin-1-yl)methyl)piperidin-1-yl)isoxazol-5-yl)-3-methylbutanoyl)-4-hydroxypyrrolidine-2-carboxamide]: the DC50 under setting [6] is > 30 nM.

In the case of `Cc1ncsc1-c1ccc([C@H](C)NC(=O)[C@@H]2C[C@@H](O)CN2C(=O)[C@@H](c2cc(OCC[C@@H]3CCN(C[C@H]4C[C@H](Oc5cc(N6C7CCC6CN(c6cc(-c8ccccc8O)nnc6N)C7)ccn5)C4)[C@H](C)[C@@H]3C)no2)C(C)C)cc1` (single isomer, unassigned) [compound 584], the Dmax under setting [5] is > 75%. Moreover, under setting [6], the DC50 is < 2.5 nM.

Turning to `Cc1ncsc1-c1ccc([C@H](C)NC(=O)[C@@H]2C[C@@H](O)CN2C(=O)[C@@H](c2cc(OCCN3CCN(CCOc4cc(N5C6CCC5CN(c5cc(-c7ccccc7O)nnc5N)C6)ccn4)[C@@H](C)C3)no2)C(C)C)cc1` [compound 140, (2S,4R)-1-((2R)-2-(3-(2-((3S)-4-(2-((4-(3-(3-amino-6-(2-hydroxyphenyl)pyridazin-4-yl)-3,8-diazabicyclo[3.2.1]octan-8-yl)pyridin-2-yl)oxy)ethyl)-3-methylpiperazin-1-yl)ethoxy)isoxazol-5-yl)-3-methylbutanoyl)-4-hydroxy-N-((S)-1-(4-(4-methylthiazol-5-yl)phenyl)ethyl)pyrrolidine-2-carboxamide], the DC50 under setting [3] is < 2.5 nM. Besides, the greatest degradation seen (Dmax) under setting [4] was > 75%.

With `Cc1cnn(C)c1-c1ccc([C@H](C)NC(=O)[C@@H]2C[C@@H](O)CN2C(=O)C(c2cc(OCCN3CCN(CCOc4cc(N5C6CCC5CN(c5cc(-c7ccccc7O)nnc5N)C6)ccn4)CC3)no2)C(C)C)cc1` (stereo in doubt) [compound 194, (2S,4R)-1-((2R)-2-(3-(2-(4-(2-((4-(3-(3-amino-6-(2-hydroxyphenyl)pyridazin-4-yl)-3,8-diazabicyclo[3.2.1]octan-8-yl)pyridin-2-yl)oxy)ethyl)piperazin-1-yl)ethoxy)isoxazol-5-yl)-3-methylbutanoyl)-N-((S)-1-(4-(1,4-dimethyl-1H-pyrazol-5-yl)phenyl)ethyl)-4-hydroxypyrrolidine-2-carboxamide], under setting [3], the 50% degradation concentration (DC50) was < 2.5 nM. For the same compound, the “Dmax (%) (% degraded)” value (BRM degradation, SW1573 cells, tested at the top concentration of between 0.3 and 10 μM) was “A (A > 75)”.

In the case of `CC(C)[C@@H](C(=O)N1C[C@H](O)C[C@H]1C(=O)N[C@@H](C)c1ccc(-c2ccnn2C)cc1)c1cc(N2CCC(CN3CCC(O[C@H]4C[C@H](Oc5cc(N6C7CCC6CN(c6cc(-c8ccccc8O)nnc6N)C7)ccn5)C4)CC3)CC2)no1` [compound 622, (2S,4R)-1-((2R)-2-(3-(4-((4-((1r,3r)-3-((4-(3-(3-amino-6-(2-hydroxyphenyl)pyridazin-4-yl)-3,8-diazabicyclo[3.2.1]octan-8-yl)pyridin-2-yl)oxy)cyclobutoxy)piperidin-1-yl)methyl)piperidin-1-yl)isoxazol-5-yl)-3-methylbutanoyl)-4-hydroxy-N-((S)-1-(4-(1-methyl-1H-pyrazol-5-yl)phenyl)ethyl)pyrrolidine-2-carboxamide], the Dmax under setting [5] is > 75%. Moreover, under setting [6], the half-maximal degradation concentration (DC50) was < 2.5 nM.

As to `Cc1ncsc1-c1ccc([C@H](C)NC(=O)[C@@H]2C[C@@H](O)CN2C(=O)[C@@H](c2cc(OCC#CC34CC(CN5CC(Oc6cc(N7C8CCC7CN(c7cc(-c9ccccc9O)nnc7N)C8)ccn6)C5)(C3)C4)no2)C(C)C)cc1` [compound 383, (2S,4R)-1-((2R)-2-(3-((3-(3-((3-((4-(3-(3-amino-6-(2-hydroxyphenyl)pyridazin-4-yl)-3,8-diazabicyclo[3.2.1]octan-8-yl)pyridin-2-yl)oxy)azetidin-1-yl)methyl)bicyclo[1.1.1]pentan-1-yl)prop-2-yn-1-yl)oxy)isoxazol-5-yl)-3-methylbutanoyl)-4-hydroxy-N-((S)-1-(4-(4-methylthiazol-5-yl)phenyl)ethyl)pyrrolidine-2-carboxamide], under setting [1], the Dmax was > 75%. For the same compound, the 50% degradation concentration (DC50) under setting [2] was > 30 nM.
